Consider 18 molecules from PubChem BioAssay AID1224920 (Broad Institute, 2016).

The assay in a line: growth modulation of Clostridium difficile isolate – OD600, 9-point, retest, dose response (AID 1224920).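 Also: plate controls were DMSO for no effect and levofloxacin control for full effect; inhibitors lower culture turbidity so OD600 falls.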 Conditions: Clostridium difficile clinical isolate growth, OD600, 24 h.

Active and inactive are the calls of the source.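 The calls were made as follows: active = IC50 no higher than ten times the top tested dose; inconclusive = flat fit with 30 to 70% inhibition, or poor fit; inactive = IC50 above ten times the top dose.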

Turning to `C/C=C/c1ccc(C2[C@@H]3CN(S(=O)(=O)c4ccc(F)cc4)C[C@H]2N3)cc1` (stereo partly drawn), for the setting “at 60 µM (top of the series)”, the activity change, negative = inhibition was 42.1% (inactive). On to `O=C(C1CCCCC1)N1CC(=O)N2[C@@H](CO)[C@H](c3ccc(C#CCc4ccccc4)cc3)[C@@H]2C1`, for which, where the note is “at 60 µM (top of the series)”, the activity change, negative = inhibition was 21.9% (inactive). For the molecule `C[C@@H]1CN([C@@H](C)CO)C(=O)Cc2cc(NS(=O)(=O)c3ccccc3)ccc2O[C@@H]1CN(C)Cc1ccc(Oc2ccccc2)cc1`, the activity change, negative = inhibition (at 120 µM (top of the series)) is 39.5% (inactive). Take `CN1c2ccc(Br)cc2[C@H]2[C@H](CCN2C(=O)Nc2ccc(F)cc2)[C@@H]1CO`: under “at 120 µM (top of the series)”, the activity change, negative = inhibition is 55.4% (inactive). `C/C=C/c1ccc([C@@H]2[C@@H](CO)N(Cc3ccccn3)[C@H]2CNC(C)=O)cc1`: the activity change, negative = inhibition (at 120 µM (top of the series)) is -14.5% (inactive). With `C/C=C/c1ccc(C2[C@@H]3CN(Cc4cccc(OC)c4)C[C@H]2N3)cc1` (stereo partly drawn), the activity change, negative = inhibition (at 60 µM (top of the series)) is 20.9% (inactive).

For the molecule `COc1ccc2c3c(n(C)c2c1)[C@H](CO)N(C(=O)c1ccncc1)CC31CN(C)C1`, the activity change, negative = inhibition (at 120 µM (top of the series)) is 3.29% (inactive).

Turning to `C/C=C/c1ccc([C@@H]2[C@@H](CO)N(C(=O)CC)[C@@H]2CNC(=O)CC)cc1`, the activity change, negative = inhibition (at 120 µM (top of the series)) is -6.09% (inactive). For `N#C[C@@H]1[C@H](c2ccccc2-c2cccc(F)c2)[C@H](CO)N1C(=O)Cc1cccnc1`, the activity change, negative = inhibition (at 135 µM (top of the series)) was 9.55% (inactive).

As for `Cc1ccccc1S(=O)(=O)N1CC[C@H]2[C@H](CO)Nc3ccc(-c4ccc(F)cc4)cc3[C@H]21`, where the note is “at 60 µM (top of the series)”, the activity change, negative = inhibition is 13.1% (inactive). `Cc1ccccc1-c1ccc([C@H]2[C@@H](CO)N3CCCCN(S(=O)(=O)c4ccc(F)cc4)C[C@H]23)cc1`: the activity change, negative = inhibition (at 120 µM (top of the series)) was 3.42% (inactive). Regarding `N#Cc1cccc(-c2ccc3c(c2)[C@@H]2[C@@H](CCN2Cc2ccc4c(c2)OCO4)[C@@H](CO)N3)c1`, where the note is “at 35 µM (top of the series)”, the activity change, negative = inhibition was -4.09% (inactive).

As to `Cc1ccc(-c2ccc([C@@H]3[C@@H](CO)N4CCCCN(C(=O)Nc5ccccc5)C[C@@H]34)cc2)cc1`, the activity change, negative = inhibition (at 120 µM (top of the series)) is 27.7% (inactive).

With `Cc1ccccc1-c1ccc([C@@H]2[C@@H](CO)N3CCCCN(S(=O)(=O)c4ccc(F)cc4)C[C@H]23)cc1`, where the note is “at 120 µM (top of the series)”, the activity change, negative = inhibition is -1.33% (inactive). In the case of `N#C[C@@H]1[C@@H](c2ccccc2-c2cccc(F)c2)[C@H](CO)N1C(=O)NC1CCCCC1`, under “at 120 µM (top of the series)”, the activity change, negative = inhibition is 9.02% (inactive). Turning to `COc1ccc(NC(=O)N2[C@@H]3CNC[C@H]2C3c2ccc(-c3ccc(F)cc3)cc2)cc1` (stereo partly drawn), the activity change, negative = inhibition (at 60 µM (top of the series)) was 39.8% (inactive).

For the molecule `N#Cc1cccc(-c2ccc(C3[C@H]4CNC[C@@H]3N4C(=O)Nc3ccc(F)cc3)cc2)c1` (stereo partly drawn), the activity change, negative = inhibition (at 68 µM (top of the series)) was 21.6% (inactive). Turning to `CN(C)CC(=O)N1C[C@@H]2N[C@H](C1)C2c1ccc(/C=C/c2ccccc2)cc1` (stereo partly drawn), for the setting “at 60 µM (top of the series)”, the activity change, negative = inhibition is 46.6% (inactive).
